“And” between values parts separate entries of the source, which are not always exact repeats. Equal entries are not always repeated. Where two headings read alike, the source gives them in different places.
Experiments:
[1] = Physiological monitoring (SaO2, heart rate, respiratory rate, ECG) during MRI, pre versus post contrast agent; type: in vivo; conditions: for changes in SaO2, HR, RR or ECG parameters (ST, T wave morphology, rhythm), pre versus post contrast agent: up to 2 hours after contrast agent
From the text: Wild type C57BL/6 mice 6-10 months of age (25-30 gr) were used in all experiments. Since variations in physiological processes can influence the MRI signal in the brain, various monitoring devices were used while the mouse was being imaged. Heart rate, respiratory rate and SaO2 were continuously monitored using pulse oximetry (Model V33304, Sergivet). The probe was attached to the lower abdomen. A rectal temperature was continuously monitored with a thermestor (YSI Precision Thermometer 4000A).
ECG was monitored in a physiogard (SM 785, Brucker) by using subcutaneous silver electrodes from the front limbs and the reference electrode placed at the right posterior limb.
Comparisons were made within the groups pre with post contrast agent up to 2 hours after IV (feridex or gadodiamide) or IP GD (10 mmol/kg) (Table 1).
Thus, 10 mmol/kg was identified as the optimum dose of GD, and this dose was used for all further experiment unless otherwise indicated. […] Since the goal is to keep scan time as short as possible, in order to minimize morbidity and mortality, a 45 minutes time point was identified as the optimum post-contrast time interval.

[2] = humans; cited from earlier work
[3] = mice, IV; cited from earlier work
[4] = rats, IV; cited from earlier work
[5] = IP 15 mmol/kg, individual mice with toxicity, listed as GD

## CNC(=O)CN(CCN(CCN(CC(=O)[O-])CC(=O)NC)CC(=O)[O-])CC(=O)[O-].[Gd+3] [gadodiamide]
[1]; IP 10 mmol/kg
  changes in SaO2, HR, RR or ECG parameters (ST, T wave morphology, rhythm), pre versus post contrast agent: No significant changes
[1]; [5]
  RR (respiratory rate): 100 and 110
  SaO2: 72 and 65
[1]; IP 15 mmol/kg, two mice, procedure aborted
  toxicity (significant changes in vital signs): caused toxicity
[1]; IV
  changes in SaO2, HR, RR or ECG parameters (ST, T wave morphology, rhythm), pre versus post contrast agent: No significant changes
[2]
  elimination half-life: approximately 1.5 hours
[3]
  elimination half-life: 5 to 6 min
[4]
  elimination half-life: about 20 minutes
